The term MIC denotes the least concentration at which growth counts as inhibited. The low end stands for inhibition by little substance, the high end for a need for much substance. For orientation: IC50 means the point on the concentration scale where inhibition reaches its midpoint.

Experiment [1] deals with Klebsiella pneumoniae. Put plainly: Antimicrobial activity against Klebsiella pneumoniae incubated overnight by broth microdilution method. In kind it is functional. (In general: Broth dilution looks for growth in wells or tubes with falling amounts of substance.)
For experiment [2], the system named is Staphylococcus aureus. Put plainly: Antimicrobial activity against methicillin-resistant Staphylococcus aureus incubated overnight by broth microdilution method. The class given is functional.
Experiment [3] has as its system Enterococcus faecalis. Put plainly: Antimicrobial activity against Enterococcus faecalis ATCC 29212 incubated for 18 to 24 hrs by microbroth dilution method. In kind it is functional.
Experiment [4] relates to Yersinia pseudotuberculosis. Put plainly: Antimicrobial activity against Yersinia pseudotuberculosis ATCC 911 incubated for 18 to 24 hrs by microbroth dilution method. The class given is functional.
Experiment [5] deals with Staphylococcus aureus. Put plainly: Antimicrobial activity against Staphylococcus aureus ATCC 25923 incubated for 18 to 24 hrs by microbroth dilution method. The class given is functional.
A further experiment relates to Bacillus cereus. Put plainly: Antimicrobial activity against Bacillus cereus 709 Roma incubated for 18 to 24 hrs by microbroth dilution method. The class given is functional.
Experiment [6] concerns Mycolicibacterium smegmatis. Put plainly: Antimicrobial activity against Mycobacterium smegmatis ATCC 607 incubated for 48 to 72 hrs by microbroth dilution method. The class given is functional.
For experiment [7], the system named is Escherichia coli. Put plainly: Antimicrobial activity against Escherichia coli ATCC 25922 incubated for 18 to 24 hrs by microbroth dilution method. The class given is functional.
For the next experiment, the system named is Pseudomonas aeruginosa. Put plainly: Antimicrobial activity against Pseudomonas aeruginosa ATCC 43288 incubated for 18 to 24 hrs by microbroth dilution method. The class given is functional.
The test system of experiment [8] is Staphylococcus aureus. Put plainly: Antimicrobial activity against Staphylococcus aureus ATCC 25923 by CLSI method. The class given is functional.
The test system of experiment [9] is Escherichia coli. Put plainly: Antimicrobial activity against Escherichia coli ATCC 25922 by CLSI method. In kind it is functional.
The next experiment has as its system Mycobacterium avium. Put plainly: Antimicrobial activity against Mycobacterium avium incubated for 10 days by microbroth dilution method. Particulars: 240 h. The class given is functional.
Experiment [10] concerns Mycobacterium tuberculosis. Put plainly: Antimicrobial activity against Mycobacterium tuberculosis H37Rv incubated for 10 days by microbroth dilution method. The class given is functional. Particulars: 240 h.
The next experiment concerns Mycolicibacter terrae. Put plainly: Antimicrobial activity against Mycobacterium terrae incubated for 10 days by microbroth dilution method. Particulars: 240 h. The class given is functional.
In experiment [11] the test system is Staphylococcus aureus. Put plainly: Antimicrobial activity against methicillin-susceptible Staphylococcus aureus ATCC 29213 incubated for 24 hrs by serial dilution method. Particulars: ATCC 29213, 24 h. In kind it is functional.
Another experiment deals with Moraxella catarrhalis. Put plainly: Antimicrobial activity against Moraxella catarrhalis ATCC 25238 incubated for 24 hrs by serial dilution method. The class given is functional. The following applies: ATCC 25238, 24 h.
In another experiment the test system is PANC-1. Put plainly: Growth inhibition of human PANC1 cells at 10 uM incubated for 48 hrs by MTT assay. In kind it is functional. The following applies: PANC-1, 48 h, read-out: GI. A general note: Tetrazolium dyes change colour on reduction, which living cells bring about.
Another experiment concerns HeLa. Put plainly: Growth inhibition of human HeLa cells at 10 uM incubated for 48 hrs by MTT assay relative to control. The following applies: read-out: GI. The class given is functional.
For experiment [12], the system named is Escherichia coli. Put plainly: Antimicrobial activity against Escherichia coli ATCC 35218 incubated for 24 hrs by serial dilution method. The class given is functional. Particulars: ATCC 35218, 24 h.
Experiment [13] deals with Staphylococcus aureus. Put plainly: Antimicrobial activity against methicillin-resistant Staphylococcus aureus ATCC 33591 incubated for 24 hrs by serial dilution method. The following applies: ATCC 33591, 24 h. In kind it is functional.
For experiment [14], the system named is Klebsiella pneumoniae. Put plainly: Antimicrobial activity against Klebsiella pneumoniae ATCC 35657 incubated for 24 hrs by serial dilution method. The following applies: ATCC 35657, 24 h. In kind it is functional.
The next experiment concerns A549. Put plainly: Growth inhibition of human A549 cells at 10 uM incubated for 48 hrs by MTT assay relative to control. The following applies: A549, 48 h, read-out: GI. The class given is functional.
Experiment [15] deals with Enterococcus faecalis. Put plainly: Antimicrobial activity against Enterococcus faecalis ATCC 29212 incubated for 24 hrs by serial dilution method. In kind it is functional. Particulars: ATCC 29212, 24 h.
The subject of another experiment is HCT-116. Put plainly: Growth inhibition of human HCT116 cells at 10 uM incubated for 48 hrs by MTT assay relative to control. In kind it is functional. The following applies: HCT-116, 48 h, read-out: GI.
Experiment [16] has as its system Escherichia coli. Put plainly: Antimicrobial activity against penicillin-resistant Escherichia coli at < 1 ug/ml relative to control. In kind it is functional.
Experiment [17] concerns Mycolicibacterium smegmatis. Put plainly: Antimicrobial activity against Mycobacterium smegmatis incubated for 30 to 32 hrs by spectrophotometry based assay. The class given is functional.
The test system of another experiment is Candida albicans. Put plainly: Antifungal activity against Candida albicans after overnight incubation by agar well diffusion method. The class given is functional. (In general: A growth-free zone around the sample is the usual read-out of agar diffusion tests.)
The test system of another experiment is Aspergillus clavatus. Put plainly: Antifungal activity against Aspergillus clavatus after overnight incubation by agar well diffusion method. The class given is functional.
A further experiment concerns PC-3. Put plainly: Growth inhibition of human PC3 cells by MTT assay. The class given is functional, cell-based.

In brackets after ≈: the same amount, converted by molar mass.

As to `C[C@H]1Cn2cc(C(=O)NCCC(=O)NCCC[C@@H]3NC(=O)[C@H](CCCNC(=N)N)NC(=O)[C@H](CCCNC(=N)N)NC(=O)[C@H](CCCNC(=N)N)NC(=O)[C@@H](Cc4c[nH]c5ccccc45)NC(=O)[C@H](Cc4c[nH]c5ccccc45)NC(=O)[C@H](Cc4c[nH]c5ccccc45)NC(=O)[C@H](Cc4c[nH]c5ccccc45)NC(=O)[C@H](CCCNC(=N)N)NC3=O)c(=O)c3cc(F)c(F)c(c32)O1`, the MIC stood at 32 µg/mL (≈ 17.6 µM) against Klebsiella pneumoniae [1] and 8 µg/mL (≈ 4.4 µM) in the experiment on Staphylococcus aureus [2].

Take `CCn1cc(C(=O)O)c(=O)c2cc(F)c(N3CCN(Cn4nc(CN5CCN(c6ccc([N+](=O)[O-])cc6)CC5)oc4=S)CC3)cc21`: the MIC was less than 0.25 µg/mL against Enterococcus faecalis [3]; less than 0.25 µg/mL in experiment [4]; 0.25 µg/mL (≈ 0.383 µM) in the experiment with Staphylococcus aureus [5]; less than 0.25 µg/mL against Bacillus cereus; 1 µg/mL (≈ 1.53 µM) in experiment [6]; 0.03 µg/mL (≈ 0.046 µM) with Escherichia coli [7]. The compound also showed an MIC in the experiment with Pseudomonas aeruginosa of less than 0.25 µg/mL.

On to `CC(=O)N1CCN(c2cc3c(cc2F)c(=O)c(C(=O)O)cn3C2CC2)CC1`, for which the minimal inhibitory concentration (MIC) against Staphylococcus aureus [8] and against Escherichia coli [9] was 0.5 µg/mL (≈ 1.34 µM) throughout.

Regarding `CCn1cc(C(=O)O)c(=O)c2cc(F)c(N3CCN(Cn4nc(CN5CCN(c6ccc([N+](=O)[O-])cc6)CC5)n(-c5ccc(F)cc5)c4=S)CC3)cc21`, the MIC in the experiment with Enterococcus faecalis [3] was 0.25 µg/mL (≈ 0.335 µM); in experiment [4], 0.24 µg/mL (≈ 0.322 µM); with Staphylococcus aureus [5] it was 0.48 µg/mL (≈ 0.644 µM); against Bacillus cereus, 0.24 µg/mL (≈ 0.322 µM); in [6] it was 0.244 µg/mL (≈ 0.327 µM); with Escherichia coli [7] it was less than 0.03 µg/mL. Further, it took 0.48 µg/mL (≈ 0.644 µM) to inhibit growth with Pseudomonas aeruginosa (MIC).

Consider `CCOc1cccc2cc(-c3cc4c(cc3F)c(=O)c(C(=O)O)cn4CC)c(=O)oc12`, for which the MIC in the experiment with Mycobacterium avium is 1.5 µg/mL (≈ 3.54 µM); in experiment [10], 1.5 µg/mL (≈ 3.54 µM); in the experiment with Mycolicibacter terrae, 0.7 µg/mL (≈ 1.65 µM).

For the compound `O=C(O)c1cn(C2CC2)c2cc(N3CCN(Cn4nc(CN5CCN(c6ccc([N+](=O)[O-])cc6)CC5)oc4=S)CC3)c(F)cc2c1=O`, the MIC (against Enterococcus faecalis [3]; in experiment [4]; in the experiment on Staphylococcus aureus [5]; against Bacillus cereus; in [6]; in the experiment on Escherichia coli [7]) was 0.03 µg/mL (≈ 0.0451 µM) in each case. The minimum inhibitory concentration (MIC) in the experiment with Pseudomonas aeruginosa was determined as 0.03 µg/mL (≈ 0.0451 µM).

Consider `O=C(O)c1cn(C2CC2)c2cc(N3CCN(C(=O)c4ccccc4)CC3)c(F)cc2c1=O`, for which the MIC against Staphylococcus aureus [8] stood at 1 µg/mL (≈ 2.3 µM); in the experiment with Escherichia coli [9] it was 2 µg/mL (≈ 4.59 µM).

In the case of `CC(C)NCc1cn(-c2cc3c(cc2F)c(=O)c(C(=O)NO)cn3C2CC2)nn1`, the MIC with Staphylococcus aureus [11], in the experiment on Moraxella catarrhalis, in the experiment on Escherichia coli [12], against Staphylococcus aureus [13], against Klebsiella pneumoniae [14] and against Enterococcus faecalis [15] was greater than 64 µg/mL each time. Moreover, the inhibition of growth at 10 µM came out at 15% with PANC-1, 30% in the experiment with HeLa, 35% with A549 and 30% in the experiment with HCT-116.

In the case of `CCCCCOC(=O)c1cn(C2CC2)c2cc(N3CCNCC3)c(F)cc2c1=O`, the “inhibition (INH)” value with Escherichia coli [16] is greater than 60%.

Consider `COc1c(N2CCN(C)CC2)c(F)cc2c(=O)c(C(=O)N/N=C\c3cccc(C)c3)cn(C3CC3)c12`, for which, in experiment [17], inhibition of growth (MIC) required 42.5 µM (≈ 20.9 µg/mL). Besides, the “inhibition zone (IZ)” value in the experiment on Candida albicans is given as 10 mm; in the experiment on Aspergillus clavatus, 11 mm. The same compound came in with an IC50 in the experiment with PC-3 of 10 µg/mL (≈ 20.3 µM).

Take `O=C(NO)c1cn(C2CC2)c2cc(-n3cc(CN4CCOCC4)nn3)c(F)cc2c1=O`: the MIC in the experiment on Staphylococcus aureus [11] was greater than 64 µg/mL; in the experiment with Moraxella catarrhalis, 8 µg/mL (≈ 18.7 µM); against Escherichia coli [12], 8 µg/mL (≈ 18.7 µM); against Staphylococcus aureus [13], greater than 64 µg/mL; in the experiment with Klebsiella pneumoniae [14] it was 4 µg/mL (≈ 9.34 µM); with Enterococcus faecalis [15] it was greater than 64 µg/mL. In addition, the inhibition of growth at 10 µM with PANC-1 worked out at 13%; in the experiment with HeLa, 20%; in the experiment with A549, 15%; with HCT-116, 15%.

For `O=C(O)c1cn(C2CC2)c2cc(N3CCN(Cc4ccccc4)CC3)c(F)cc2c1=O`, the MIC against Staphylococcus aureus [8] and against Escherichia coli [9] was 0.25 µg/mL (≈ 0.593 µM) each time.

For the origin of these results see ChEMBL document CHEMBL4602605, “Fluoroquinolones structural and medicinal developments (2013-2018): Where are we now?” (Bioorg Med Chem, 2019).
